Reference: patent publication US11859021B2, “Compounds for regulating trained immunity, and their methods of use” (Trained Therapeutix Discovery, Inc., priority 2021, dated 2024)

Legend:
[1] = Solubility test in demineralized water; type: physicochemical; details: 0.3 mM, film, sonicated, overnight
Method: Next, compounds were weighed and dissolved in chloroform/methanol. The solutions were left to dry in a vial forming a film of the materials. The vials were put in vacuo to remove traces of organic solvent. Demineralized water was added, such that the concentration of the compounds would become 0.3 mM in case full dissolution would take place (0.3 mM corresponds to 0.3 mg/mL for a MW=1000 Dalton compound). The vial was briefly sonicated in a water bath, left to stand overnight, and once again sonicated (sonication at RT). The appearances of the solutions at RT were checked to assess solubilities. In the below table the results are compiled.

human NOD2 (hNOD2) = target: T1, human NOD2 (hNOD2) (Homo sapiens, UniProt Q9HC29); experiment: In vitro NOD2 activation assay in HEK-Blue hNOD2 cells; type: cell-based; details: overnight incubation, FIG. 3
T1 construct: host or cells: HEK-Blue hNOD2 cells
T1 sequence (Q9HC29 whole entry): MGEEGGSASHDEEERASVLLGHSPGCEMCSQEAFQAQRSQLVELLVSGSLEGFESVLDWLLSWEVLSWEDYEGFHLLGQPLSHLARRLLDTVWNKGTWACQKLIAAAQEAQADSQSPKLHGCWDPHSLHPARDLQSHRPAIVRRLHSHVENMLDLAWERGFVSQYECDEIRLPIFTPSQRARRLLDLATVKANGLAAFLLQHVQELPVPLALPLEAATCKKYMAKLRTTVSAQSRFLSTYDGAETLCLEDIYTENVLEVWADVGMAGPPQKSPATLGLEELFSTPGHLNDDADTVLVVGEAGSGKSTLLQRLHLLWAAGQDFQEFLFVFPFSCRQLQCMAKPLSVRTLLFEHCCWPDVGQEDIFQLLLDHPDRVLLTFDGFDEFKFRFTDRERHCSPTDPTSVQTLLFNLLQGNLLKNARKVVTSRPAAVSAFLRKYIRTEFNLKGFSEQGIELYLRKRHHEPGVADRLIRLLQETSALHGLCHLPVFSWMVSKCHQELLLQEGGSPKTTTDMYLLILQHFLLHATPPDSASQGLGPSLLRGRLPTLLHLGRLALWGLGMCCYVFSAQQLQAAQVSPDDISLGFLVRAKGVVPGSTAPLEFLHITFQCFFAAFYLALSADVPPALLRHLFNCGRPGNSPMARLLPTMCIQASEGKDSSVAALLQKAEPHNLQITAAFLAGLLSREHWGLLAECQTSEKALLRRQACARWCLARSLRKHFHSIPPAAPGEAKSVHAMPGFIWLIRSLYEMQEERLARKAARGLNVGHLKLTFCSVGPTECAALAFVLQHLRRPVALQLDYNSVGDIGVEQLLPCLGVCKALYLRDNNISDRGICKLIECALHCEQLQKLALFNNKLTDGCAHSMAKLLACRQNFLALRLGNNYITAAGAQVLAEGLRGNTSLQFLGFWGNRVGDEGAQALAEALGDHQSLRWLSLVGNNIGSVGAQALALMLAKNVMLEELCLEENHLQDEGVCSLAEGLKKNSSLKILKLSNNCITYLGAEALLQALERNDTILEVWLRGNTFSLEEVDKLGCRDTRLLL
Method: The stimulation of human NOD2 (hNOD2) by compounds disclosed herein was studied by monitoring activation of NF-κB in HEK-Blue™ hNOD2 cells (Invitrogen). 50,000 HEK-Blue™ hNOD2 cells were seeded in HEK-Blue™ Detection Medium in flat-bottom tissue culture plates. Concentration ranges of the test article (compounds diluted from DMSO-solutions (17.8 mmoL/L), first with demineralized water and then with PBS to the desired concentrations) were added to the cells in the tissue culture plates. Cells were incubated overnight at 37° C. and 5% CO2. The following day, supernatants were collected in an ELISA plate and the OD was measured at 620 nm using a spectrophotometer.
The signal in this assay is based on NOD2 stimulation with a ligand which subsequently activates NF-κB and AP-1, resulting in the production of SEAP. Levels of SEAP were then determined with HEK-Blue™ Detection medium (Invitrogen). The hydrolysis of the substrate in the medium by SEAP produces a purple/blue color that was then measured with an Absorbance microplate reader. OD values are mapped based on test article concentration and are depicted in FIG. 3. Assay performance was validated with muramyl dipeptide (CAS number [53678-77-6]).

[2] = Solubility test in PBS buffer; type: physicochemical; details: PBS pH 7.4, 0.2 mg/mL; for Appearance at 37° C.: 1 minute in 37° C. water bath; for Appearance at RT: room temperature
Method: First, compounds were weighed in a vial and PBS buffer (137, 2.7, 10 and 1.8 mM in NaCl, KCl, Na2HPO4, KH2PO4, respectively; pH=7.4) was added, such that the concentration would become 0.2 mg/mL in case full dissolution would take place. The sample was shaken, left to stand for an hour, shaken again, and then the appearance of the solution at room temperature (RT) was checked. Next, the sample was warmed for 1 minute in a water bath of 37° C., and the appearance of the solution was checked again. In the below table the results are compiled.

[3] = HPLC retention times to compare lipophilicities; type: physicochemical; details: Kinetex EVO C18 column, same gradient A to B; higher retention time = more lipophilic
Method: Experimentally, one can also compare lipophilicities of molecules by performing HPLC using the same elution gradient. Molecules that have higher affinities with the hydrophobic C18-material of the column are more lipophilic and as a result have a higher retention time.
Methods: HPLC-MS(SIM) and HPLC-ELSD were performed on a Phenomenex Kinetex 5 micrometer EVO C18 100A LC-column (50×2.1 mm) employing the same gradient from A to B eluent, where A=20 mM NH4HCO2 in H2O with 0.1 v/v % formic acid, and B=2-propanol/MeCN/H2O 85:15:5, also with 20 mM NH4HCO2 and 0.1 v/v % formic acid.

[4] = Degradation by augmented oxidation test; type: physicochemical; details: 12% hydrogen peroxide in water, 80° C., 4 hours
Method: The reference compounds MDP and MDP(Bn) as well as the Bn-substituted compounds from Example 7 (i.e. MDP(Bn)-DSPE[click] and Example 14 (i.e. MTP(Bn)-a-DPPE) were mixed with 12% hydrogen peroxide in water and were heated to 80° C. for 4 hours, in order to get a fast degradation of the molecules by oxidation, mimicking slower in-vivo oxidation events.
The resulting reaction mixtures were diluted with acetonitrile and water (1:1) for the MDP and MDP(Bn) test solutions, or with iPrOH, acetonitrile and water (40:7.5:52.5) with 0.1% formic acid and 20 mM ammonium formate for the MDP(Bn)-DSPE[click] and the MTP(Bn)-a-DPPE solutions. The 4 diluted samples were analyzed by HPLC-MS. For reference, the 4 starting materials were also analyzed by HPLC-MS, as well as MDP-DSPE[click] and MTP-a-DPPE, i.e. the de-benzylated reference compounds to the Bn-substituted test molecules.

SMILES	Appearance at RT [1]	NOD2 activation (NF-κB/SEAP reporter, OD at 620 nm) (human NOD2 (hNOD2))	Appearance at 37° C. [2]	Appearance at RT [2]	HPLC-ELSD t [3] [min]	HPLC-MS t [3] [min]	Oxidative degradation, products by HPLC-MS [4]
CCCCCCCCCCCCCCCCCC(=O)OC[C@H](COC(=O)NCCCC[C@H](NC(=O)CC[C@@H](NC(=O)[C@H](C)NC(=O)[C@@H](C)O[C@H]1[C@H](O)[C@@H](CO)OC(OCc2ccccc2)[C@@H]1NC(C)=O)C(N)=O)C(N)=O)OC(=O)CCCCCCCCCCCCCCCCC (stereo partly shown) [Example 13, MTP-b-DSG]	Gel/precipitate	able to activate NOD2, but seemingly to a lesser extent	suspension	suspension	5.49	–	–
CCCCCCCCCCCCCCCCCC(=O)OC[C@H](COP(=O)(O)OCCNC(=O)Cn1cc(CNC(=O)CC[C@@H](NC(=O)[C@H](C)NC(=O)[C@@H](C)O[C@H]2[C@H](O)[C@@H](CO)OC(O)[C@@H]2NC(C)=O)C(N)=O)nn1)OC(=O)CCCCCCCCCCCCCCCCC (stereo partly shown) [Example 2, MDP-DSPE [Click]]	Gelly/hazy/precipitate	comparable	hazy	hazy	4.58	4.46	–
CCCCCCCCCCCCCCCC(=O)OC[C@H](COP(=O)(O)OCCNC(=O)[C@H](C)NC(=O)CC[C@@H](NC(=O)[C@H](C)NC(=O)[C@@H](C)O[C@H]1[C@H](O)[C@@H](CO)OC(OCc2ccccc2)[C@@H]1NC(C)=O)C(N)=O)OC(=O)CCCCCCCCCCCCCCC (stereo partly shown) [MTP(Bn)-a-DPPE]	–	–	–	–	–	–	mainly degraded via oxidation of the Bn-group to a benzoate group (+14) followed by hydrolysis of the benzoate (−104)
CC(=O)N[C@H]1[C@@H](OCc2ccccc2)O[C@H](CO)[C@@H](O)[C@@H]1O[C@H](C)C(=O)N[C@@H](C)C(=O)N[C@H](CCC(=O)NCc1cn(CC(=O)O[C@H]2CC[C@@]3(C)C(=CC[C@H]4[C@@H]5CC[C@H]([C@H](C)CCCC(C)C)[C@@]5(C)CC[C@@H]43)C2)nn1)C(N)=O [Example 8, MDP(Bn)-Chol[Click]]	Precipitate	able to activate NOD2, but seemingly to a lesser extent	suspension	suspension	–	–	–
CCCCCCCCCCCCCCCCCC(=O)NCCCC[C@H](NC(=O)CC[C@@H](NC(=O)[C@H](C)NC(=O)[C@@H](C)O[C@H]1[C@H](O)[C@@H](CO)OC(OCc2ccccc2)[C@@H]1NC(C)=O)C(N)=O)C(N)=O (stereo partly shown) [Example 10, MTP-b-C18]	Precipitate	–	–	–	–	–	–
CCCCCCCCCCCCCCCC(=O)OC[C@H](COP(=O)(O)OCCNC(=O)[C@H](C)NC(=O)CC[C@@H](NC(=O)[C@H](C)NC(=O)[C@@H](C)O[C@H]1[C@H](O)[C@@H](CO)OC(OCc2ccccc2)[C@@H]1NC(C)=O)C(N)=O)OC(=O)CCCCCCCCCCCCCCC (stereo partly shown) [Example 14, MTP(Bn)-a-DPPE]	–	–	–	–	3.5	3.61	–
CCCCCCCCCCCCCCCCCCNC(=O)CC[C@@H](NC(=O)[C@H](C)NC(=O)[C@@H](C)O[C@H]1[C@H](O)[C@@H](CO)OC(O)[C@@H]1NC(C)=O)C(N)=O (stereo partly shown) [Example 11, MDP-C18]	Precipitate	–	suspension	suspension	–	–	–
CCCCCCCCCCCCCCCCCC(=O)OC[C@H](COP(=O)(O)OCCNC(=O)Cn1cc(CNC(=O)CC[C@@H](NC(=O)[C@H](C)NC(=O)[C@@H](C)O[C@H]2[C@H](O)[C@@H](CO)OC(OCc3ccccc3)[C@@H]2NC(C)=O)C(N)=O)nn1)OC(=O)CCCCCCCCCCCCCCCCC (stereo partly shown) [Example 7, MDP(Bn)-DSPE [Click]]	Hazy	comparable	hazy	suspension	5.16	5.16	mainly degraded via oxidation of the Bn-group to a benzoate group (+14) followed by hydrolysis of the benzoate (−104)
CC(=O)N[C@H]1C(O)O[C@H](CO)[C@@H](O)[C@@H]1O[C@H](C)C(=O)N[C@@H](C)C(=O)N[C@H](CCC(=O)NCc1cn(CC(=O)O[C@H]2CC[C@@]3(C)C(=CC[C@H]4[C@@H]5CC[C@H]([C@H](C)CCCC(C)C)[C@@]5(C)CC[C@@H]43)C2)nn1)C(N)=O (stereo partly shown) [Example 3, MDP-Chol [Click]]	Gelly/hazy/precipitate	comparable	hazy	suspension	–	–	–
CCCCCCCCCCCCCCCCCC(=O)OCc1cn(CCCC[C@H](NC(=O)CC[C@@H](NC(=O)[C@H](C)NC(=O)[C@@H](C)O[C@H]2[C@H](O)[C@@H](CO)OC(OCc3ccccc3)[C@@H]2NC(C)=O)C(N)=O)C(N)=O)nn1 (stereo partly shown) [Example 9, MTP-b-C18[Invclick]]	Precipitate	–	–	–	–	–	–
CCCCCCCCCCCCCCCC(=O)OC[C@H](COP(=O)(O)OCCNC(=O)[C@H](C)NC(=O)CC[C@@H](NC(=O)[C@H](C)NC(=O)[C@@H](C)O[C@H]1[C@H](O)[C@@H](CO)OC(O)[C@@H]1NC(C)=O)C(N)=O)OC(=O)CCCCCCCCCCCCCCC (stereo partly drawn) [Mifamurtide, N—(N-Acetylmuramoyl)-L-alanyl-D-alpha-glutaminyl-N-[(7R)-4-hydroxy-4-oxido-10-oxo-7-[(1-oxohexadecyl)oxy]-3,5,9-trioxa-4-phosphapentacos-1-yl]-L-alaninamide, reference compound]	Clear	–	clear	hazy	3.04	2.85	–
CCCCCCCCCCCCCCCCCC(=O)OC[C@H]1OC(O)[C@H](NC(C)=O)[C@@H](O[C@H](C)C(=O)N[C@@H](C)C(=O)N[C@H](CCC(=O)O)C(N)=O)[C@@H]1O (stereo partly drawn) [MDP-C18[mur], N-Acetylmuramyl-L-Alanyl-D-Isoglutamine-6-O-Stearoyl, reference compound]	Clear	–	clear	clear	–	0.95	–
